Assay results as given in US20260198495A1, “BINARY INSECTICIDE COMPOSITION AND USE THEREOF” (SHENYANG SINOCHEM AGROCHEMICALS R & D CO., LTD., priority 2022, published 2026).

Experiments:
Type in all cases: in vivo
[1] = test system: 2nd-instar nymphs of Frankliniella occidentalis Pergande; experiment: Joint toxicity of I-72 + carbosulfan, leaf spraying, Example 22, Table 22; conditions: in Phaseolus vulgaris, 48 h
Method: Test subject: 2nd-instar nymphs of Frankliniella occidentalis Pergande, a sensitive strain reared indoors.
(§1) Preparation of the pesticide solution: according to different test requirements, the test samples in Table 1 were accurately weighed respectively with an electronic analytical balance. The technical pesticides were dissolved in acetone, and then diluted with 0.1% Tween 80 water into a series of pesticide solutions with a certain concentration gradient according to the experimental design dosage.
(§2) Test conditions: temperature: 25-27° C., humidity: RH 60%, and illumination: L:D=14:10
Experimental method: the spraying method was adopted. The kidney bean leaves cultivated in the greenhouse were selected, and the petioles were wrapped with moist degreased cotton and sealing film. They were evenly sprayed with the pesticide solution in the order from low dosage to high dosage according to the experimental design, placed in a 6-cm-diameter Petri dish with filter paper. After natural air-drying in the shade, the test insects were introduced, with 20 insects for each treatment and 3 replicates. In addition, a blank control was set up. […] The corrected mortality rate was calculated using the Abbott's formula, and the DPS data processing software was used for statistical analysis to calculate the toxicities (LC50 values) of the single test pesticides and the mixtures under the test ratios. […]

[2] = test system: Frankliniella occidentalis Pergande; experiment: Joint toxicity of I-72 + organophosphorus insecticides, leaf dipping, Example 14, Table 14; conditions: in Phaseolus vulgaris, foliar, 48 h
Method: Test target: Frankliniella occidentalis Pergande, a sensitive strain reared indoors.
(§8) Preparation of the pesticide solution: according to different test requirements, the test samples were accurately weighed respectively with an electronic analytical balance. The technical pesticides were dissolved in acetone, and then diluted with 0.1% Tween 80 water into a series of pesticide solutions with a certain concentration gradient according to the experimental design dosage.
Experimental method: first, kidney bean leaves were selected and dipped in the prepared pesticide solution for 10 s in the order from low dosage to high dosage according to the experimental design. After natural air-drying in the shade, they were placed in a 9-cm-diameter Petri dish with filter paper, and uniform and healthy test insects were introduced, with about 20 insects for each treatment and 3 replicates for each treatment. In addition, a blank control was set up.

[3] = test system: 3rd-instar larvae of Chilo suppressalis (Walker); experiment: Joint toxicity of I-72 + organophosphorus insecticides, rice seedling dipping, Example 15, Table 15; conditions: 48 h
Method: Test target: 3rd-instar larvae of Chilo suppressalis (Walker), a sensitive strain reared indoors.
as §1, with “samples” for “samples in Table 1”
(§3) Experimental method: first, tender and fresh rice seedlings were selected and dipped in the prepared pesticide solution for 10 s in the order from low dosage to high dosage according to the experimental design. After natural air-drying in the shade, they were cut into small sections of 5 cm, placed in a 9-cm-diameter Petri dish with filter paper, and uniform and healthy test insects were introduced, with 10 insects for each treatment and 3 replicates for each treatment. In addition, a blank control was set up.
(§4) The treated test materials were placed in an observation room, and the temperature, humidity and illumination of the observation room could be adjusted as needed. The number of dead and live insects was investigated 48 hours later. The corrected mortality rate was calculated using the Abbott's formula, and statistical analysis was performed with the DPS data processing software to obtain the toxicity regression equation, LC50 value and 95% confidence limit of each single test pesticide and each mixture of different ratios. Then, the co-toxicity coefficient of each ratio was calculated using the Sun Y-P method to evaluate the mixing effect (the same as in Example 1).

[4] = test system: 3rd-instar larvae of Plutella xylostella; experiment: Joint toxicity of I-72 + chlorpyrifos, leaf-disk dipping, Example 16, Table 16; conditions: in Brassica oleracea, 72 h
Method: Test target: 3rd-instar larvae of Plutella xylostella.
as §1, with “samples” for “samples in Table 1”
as §3, with “first,” for “first, tender and”, “cabbage leaves cultivated in the greenhouse” for “rice seedlings”, “selected. The cabbage leaves were made into circular leaf disks with a diameter of 3 cm using a puncher” for “selected”, “were” for “were cut into small sections of 5 cm,”
(§5) The treated test materials were placed in an observation room, and the temperature, humidity and illumination of the observation room could be adjusted as needed. […] Then, the co-toxicity coefficient of each ratio was calculated using the Sun Y-P method to evaluate the mixing effect (the same as in Example 1).

[5] = test system: Aphis gossypii Glover nymphs; experiment: Joint toxicity of I-72 + organophosphorus insecticides, cotton leaf spraying, Example 17, Table 17; conditions: 48 h
Method: Test target: Aphis gossypii Glover nymphs, a sensitive strain reared indoors.
as §1, with “samples” for “samples in Table 1”
(§6) Experimental method: first, cotton leaves with uniform and consistent Aphis gossypii were selected, with about 20 insects on each leaf. Then, they were evenly sprayed with the pesticide solution in the order from low dosage to high dosage according to the experimental design, with 1.5 mL for each leaf and 3 replicates for each treatment. In addition, a blank control was set up.
as §4

[6] = test system: Bemisia tabaci (Gennadius) nymphs; experiment: Joint toxicity of I-72 + organophosphorus insecticides, cotton leaf-disk spraying, Example 18, Table 18; conditions: 96 h
Method: Test target: Bemisia tabaci (Gennadius) nymphs.
as §1, with “samples” for “samples in Table 1”
as §6, with “neat” for “uniform”, “Bemisia tabaci (Gennadius) nymphs” for “Aphis gossypii”, “selected and made into leaf disks,” for “selected,”, “leaf disk.” for “leaf.”
as §4, with “96” for “48”

[7] = test system: adult Phyllotreta spp.; experiment: Joint toxicity of I-72 + organophosphorus insecticides, cabbage seedling spraying, Example 19, Table 19; conditions: 72 h
Method: Test target: adult Phyllotreta spp., a sensitive strain reared indoors.
as §1, with “samples” for “samples in Table 1”
Experimental method: first, fresh cabbage seedlings cultivated in the greenhouse were selected and evenly sprayed with the pesticide solution in the order from low dosage to high dosage according to the experimental design. After natural air-drying in the shade, they were covered with a glass cover, and uniform and healthy test insects were introduced, with 10 insects for each treatment and 3 replicates for each treatment. In addition, a blank control was set up.
as §4, with “72” for “48”

[8] = test system: 3rd-instar larvae of Hyphantria cunea; experiment: Joint toxicity of I-72 + organophosphorus insecticides, poplar leaf dipping, Example 20, Table 20; conditions: foliar, 72 h
Method: Test target: 3rd-instar larvae of Hyphantria cunea, a sensitive strain reared indoors.
as §8
Experimental method: first, fresh and tender poplar leaves were selected, cut into small sections of 5 cm, and dipped in the prepared pesticide solution for 10 s in the order from low dosage to high dosage according to the experimental design. After natural air-drying in the shade, they were placed in a 9-cm-diameter Petri dish with filter paper, and uniform and healthy test insects were introduced, with 10 insects for each treatment and 3 replicates for each treatment. In addition, a blank control was set up.
The treated test materials were placed in an observation room, and the temperature, humidity and illumination of the observation room could be adjusted as needed. The number of dead and live insects was investigated 72 hours later.

[9] = test system: 3rd-instar larvae of Ostrinia furnacalis Guenee; experiment: Joint toxicity of I-72 + organophosphorus insecticides, corn stalk dipping, Example 21, Table 21; conditions: 48 h
Method: Test target: 3rd-instar larvae of Ostrinia furnacalis Guenee, a sensitive strain reared indoors.
as §1, with “samples” for “samples in Table 1”
as §3, with “first, fresh” for “first,”, “corn stalks cultivated in the greenhouse” for “and fresh rice seedlings”, “selected, cut into small sections of 3 cm,” for “selected”, “were” for “were cut into small sections of 5 cm,”
as §4

[10] = test system: Pyrrhalta aenescens; experiment: Joint toxicity of I-72 + fenobucarb, insect-dipping, Example 24, Table 24; conditions: 24 h
Method: Test target: Pyrrhalta aenescens, a strain reared indoors.
Experimental method: the insect-dipping method was adopted. Pyrrhalta aenescens of the same size were selected, put into an insect-dipping cage, and evenly […] the pesticide solution in the order from low dosage to high dosage according to the experimental design, with dipping for 10 s for each treatment. They were placed in a 9-cm-diameter Petri dish with filter paper. After natural air-drying in the shade, feed was added, with 3 replicates for each treatment. In addition, a blank control was set up.
The treated test materials were placed in an observation room. The total number of test insects and the number of dead insects were investigated 24 hours later. The temperature, humidity and illumination of the observation room could be adjusted as needed. The test conditions, the preparation of the pesticide solution and the evaluation method were the same as those in Example 1.

[11] = test system: adult Tetranychus cinnabarinus (Boisduval); experiment: Joint toxicity of I-72 + spirodiclofen, potted-seedling spraying, Example 25, Table 25; conditions: A = compound I-72, B = spirodiclofen, 72 hours
Method: Test target: adult Tetranychus cinnabarinus (Boisduval), a sensitive strain reared indoors.
as §1, with “samples” for “samples in Table 1”
Experimental method: the activity of the mixture against the adult Tetranychus cinnabarinus (Boisduval) was determined by adopting the potted-seedling spraying method. First, the adult Tetranychus cinnabarinus of uniform size were transferred onto the leaves of kidney bean seedlings at the stage when the first pair of true leaves was fully expanded. After the adult mites had stabilized, the base number was counted. Then, the uniform spraying was performed with the pesticide solution in the order from low to high dose according to the experimental design, with 1.5 mL for each seedling and 3 replicates for each treatment. […]
as §5, with “effect,” for “effect (the same”, “1.” for “1).”

[12] = test system: Bemisia tabaci (Gennadius) nymphs; experiment: Joint toxicity of I-72 + spiromesifen, Example 27, Table 27; conditions: A = compound I-72, B = spiromesifen; cotton leaf-disk spraying; 96 hours
Method: Test target: Bemisia tabaci (Gennadius) nymphs, a sensitive strain reared indoors.
as §1, with “samples” for “samples in Table 1”
as §6, with “neat” for “uniform”, “Bemisia tabaci (Gennadius) nymphs” for “Aphis gossypii”, “selected and made into leaf disks,” for “selected,”, “leaf disk.” for “leaf.”
as §5, with “needed. The number of dead and live insects was investigated 96 hours later.” for “needed.”

[13] = test system: 3rd-instar larvae of Pyrausta nubilalis Hubern; experiment: Synergism assay (Bliss) of I-72 + abamectin, spinosad, spinetoram, emamectin benzoate, Example 6, Table 6; conditions: 72 h
Method: Test subject: 3rd-instar larvae of Pyrausta nubilalis Hubern, a sensitive strain reared indoors.
Test conditions: temperature: 24-26° C., humidity: RH 60%, and illumination: L:D=14:10
(§7) Preparation method: the test pesticides were accurately weighed respectively with an electronic analytical balance. After the two technical materials were respectively added into an appropriate amount of solvent and completely dissolved, the stock solution of the required concentration was prepared with water containing 0.1% Tween 80. The stock solutions of the two active ingredients were mixed in a certain ratio to prepare a mixed solution, which was then diluted respectively into a series of pesticide solutions with a certain concentration gradient according to the experimental design dosage.
Experimental method: the artificial diet-pesticide film method was adopted. A standard clean 24-well culture plate was selected. 1 ml of artificial diet was added to each well. After the diet cooled and solidified, a quantitative amount of a pesticide solution was added to the culture plate using a continuous sampler, and then it was air-dried naturally in the shade. The standard test insects were introduced, with 1 insect in each well, a total of 48 insects. The treated test insects were placed in an observation room under certain conditions. The reaction of the test insects was regularly observed, and the number of dead and live insects was investigated 72 h later.
The evaluation method adopted was the Bliss method. This method is applicable to the qualitative screening of insecticidal compositions. According to the concept of independent joint action he proposed, Bliss believes that the theoretical mortality rate P when insecticides are used in combination can be calculated by the following formula: […]
Pm is the mortality rate (%) of the target when the first active ingredient is at a concentration of m; and Pn is the mortality rate (%) of the target when the second active ingredient is at a concentration of n.
If the actual mortality rate of the target after the two active ingredients are mixed at a certain concentration is greater than theoretical mortality rate P, it is determined that the two active ingredients have a synergistic effect when used in combination at the set concentration, and otherwise, they have an antagonistic effect.

[14] = test system: 2nd-instar larvae of Chilo suppressalis (Walker); experiment: Joint toxicity of I-72 + abamectin, rice stalk spraying, Example 7, Table 7; conditions: resistant 2nd-instar larvae, 72 h, A = compound I-72, B = abamectin
Method: Test target: 2nd-instar larvae of Chilo suppressalis (Walker). The insect source was collected from Nanchang, Jiangxi Province, and it is the 11th generation continuously cultured indoors, with a relatively high resistance level to amide pesticides such as chlorantraniliprole.
as §2, §7
Experimental method: the spraying method was adopted. […] The corrected mortality rate was calculated using the Abbott's formula, and the DPS data processing software was used for statistical analysis to calculate the toxicities (LC50 values) of the single test pesticides and the mixtures under the test ratios. […]

[15] = test system: adult Bemisia tabaci (Gennadius); experiment: Joint toxicity of I-72 + abamectin, seedling spraying, Example 13, Table 13; conditions: adults, kidney bean seedling spraying, 72 h; A = compound I-72, B = abamectin
Source text: Test subject: adult Bemisia tabaci (Gennadius), a sensitive strain reared indoors.
Experimental method: the spraying method was adopted. The kidney bean seedlings cultivated in the greenhouse were selected and evenly sprayed with the pesticide solution in the order from low dosage to high dosage according to the experimental design. After natural air-drying in the shade, a self-made glass cover was put on, and the test insects were introduced, with 20-30 insects for each treatment and 3 replicates. In addition, a blank control was set up. The number of dead and live insects was investigated 72 hours later. The corrected mortality rate was calculated using the Abbott's formula, and the DPS data processing software was used for statistical analysis to calculate the toxicities (LC50 values) of the single test pesticides and the mixtures under the test ratios.
The test conditions, the preparation of the pesticide solution and the evaluation method were the same as those in Example 1.
The test subject, the test method, the test conditions, the preparation of the pesticide solution and the evaluation method were the same as those in Example 12.

CCCCN(CCCC)SN(C)C(=O)Oc1cccc2c1OC(C)(C)C2 [carbosulfan, reference compound]
LC50 [1]: 43.2 µg/mL

CCOP(=S)(OCC)Oc1nc(Cl)c(Cl)cc1Cl [chlorpyrifos]
LC50 [2]: 4.6 µg/mL
LC50 [3]: 1.96 µg/mL
LC50 [4]: 13.7 µg/mL
LC50 [5]: 4.16 µg/mL
LC50 [6]: 12.1 µg/mL
LC50 [7]: 40.4 µg/mL
LC50 [8]: 5.24 µg/mL
LC50 [9]: 5.18 µg/mL

CCC(C)c1ccccc1OC(=O)NC (stereo not drawn) [fenobucarb]
LC50 [10]: 37.2 µg/mL

CCC(C)(C)C(=O)OC1=C(c2ccc(Cl)cc2Cl)C(=O)OC12CCCCC2 [spirodiclofen]
LC50 [11]: 14.5033 mg/L

Cc1cc(C)c(C2=C(OC(=O)CC(C)(C)C)C3(CCCC3)OC2=O)c(C)c1 [spiromesifen]
LC50 [12]: 10.6291 mg/L

abamectin
Mortality rate (%) ([13]; single agent 0.1 mg/L): 10.42%
Mortality rate (%) ([13]; single agent 1 mg/L): 58.33%
Mortality rate (%) ([13]; single agent 2 mg/L): 75.00%
Mortality rate (%) ([13]; single agent 5 mg/L): 85.42%
LC50 [14]: 8.0355 mg/L
LC50 [15]: 2.2263 mg/L
